Reference: patent publication US20080145858A1, “DETECTION AND IDENTIFICATION OF TOXICANTS BY MEASUREMENT OF GENE […]” (priority 2003, published 2008)
Marks after values point to notes of the source that are not given here.

System: Xenopus laevis cleavage stage embryos (stage 8)
Test: Xenopus cDNA microarray, differential gene expression after PMA treatment during cleavage stage (Group I)
Assay type: in vivo
Conditions: for Normalized by Landmarks (1.59) / Normalized by all Data Points (1.28) / Ratio of Medians (Cy5/Cy3) First Spot / Ratio of Medians (Cy5/Cy3) Mean / Ratio of Medians (Cy5/Cy3) Second Spot / (CY3/CY5) by Landmarks (1.6) / (CY3/CY5) by all Data Points (1.3) / Normalization by Landmarks (1.6) / Normalization by all Data Points (1.3): PMA 100 ng/ml; for % increase of mRNA expression by Microarray analysis (NF by all data point): Stage 8
From the text: Specifically, the method and screen of the present invention function as follows. EST clones produced from Xenopus laevis unfertilized eggs were used in the present study with ˜1,200 EST clones from a 18,500 EST clone set selected for production of a Xenopus cDNA microarray. The Xenopus microarray was used to measure the effect of chemical treatment on Xenopus embryo gene regulation. The chemical treatment was a phorbol ester, PMA. Xenopus eggs were obtained from females induced for ovulation and fertilized in vitro. Control Xenopus laevis embryos were allowed to develop to stage 8 blastula or stage 15 neurula. Treated embryos were exposed to PMA during cleavage stage or during neurulation with end points of blastula (stage 8) or neurula (stage 15). Specifically, PMA 100 ng/ml was added to the incubation media during cleavage stages for evaluation in stage 8 embryo or PMA was added during neural induction for evaluation in stage 15 embryos. RNA extracted from the embryos was used to generate fluorescent cDNA probes for Xenopus microarray analyses to measure differential gene expression with and without the phorbol ester treatment. Analysis was performed using paired RNA samples to compare PMA-treated and untreated embryos: Group I measured the effects of PMA-treatment during the cleavage stage in stage 8 embryos and Group II measured the effects of PMA-treatment during neurulation in stage 15 embryos. Group III measured the change in gene expression between stage 8 and stage 15 embryos.
cDNA fragments were obtained by PCR replication of Xenopus laevis unfertilized egg cDNA inserts, purified, quantitated and loaded onto glass chips by robotics. In addition to the selected ˜1,200 genes, 64 lambda Q gene, an internal control cDNA (Genomic Solutions, Inc., Ann Arbor, Mich.) was loaded on the chip. The insert DNA from ˜1,200 clones were PCR amplified using forward and reverse primers (GF.200 primers, Research Genetics, Huntsville, Ala.). A second PCR was carried out using 1 μl of the primary PCR (20 μl) for template. Excess dNTPs, polymerase and other PCR artifacts were removed from the secondary PCR reactions using Millipore Multiscreen plates (Millipore Corporation, Bedford, Mass.) using the standard protocol. The purity of the PCR products was assessed by electrophoresis and documented using an Alphalmager 1000 Digital Imaging System (Alpha Innotech Corporation, San Leandro, Calif.). The DNA obtained by PCR was quantitated using PicoGreen (Molecular Probes, Eugene, Oreg.). The DNA was denatured and arrayed onto amino-silane coated microscope slides (CMT-GAPS coated slides, Corning, Corning, N.Y.) using a Flexys robotic workstation (Genomic Solutions Inc.). The ˜1,200 PCR products were arrayed in duplicate on each slide and cross-linked. Each gene chip contained duplicate cDNA samples.
Total RNA was prepared from embryos treated in three separate dishes per treatment group that were pooled. Total RNA was isolated from the frog embryos (1,200 embryos for each probe production) using TRIzol extraction (Gibco BRL, Grand Island, N.Y.) and Qiagen RNeasy kits (Qiagen, Valencia, Calif.). The ethanol precipitated RNA was resuspended in RNase-free water, quantitated with RiboGreen (Molecular Probes, Eugene, Oreg.). Total RNA was further purified using oligoTex mRNA maxi kit (Qiagen Co.) with the bound mRNA eluted with minimum volume of elution buffer and precipitated with ethanol. The recovery rate of mRNA by the ethanol precipitation method was ˜70%. Cy3- or Cy5-tagged probes were produced from an mRNA mixture (20 μl) of Xenopus mRNA (5 μg) and lambda Q gene mRNA (3.5 ng) reverse-transcribed with oligo(dT)18-22 primer and dNTPs and the reverse-transcribed cDNA was cross-linked with Cy3 or Cy5 as described in Clontech Atlas™ Glass Fluorescent Labeling kit manual (www.clontech.com). After hydrolysis of the RNA and purification of the probe (Centricon 50, Millipore, Bedford, Mass.), the cDNA in TE buffer was quantitated by absorbance at 260 nm. […]

[1] = cleavage and neurulation stage embryos
[2] = ras-related protein gene, stage 8

## CCCCCCCCCCCCCC(=O)O[C@@H]1[C@@H](C)[C@@]2(O)[C@@H](C=C(CO)C[C@]3(O)C(=O)C(C)=C[C@@H]23)[C@@H]2C(C)(C)[C@]12OC(C)=O [PMA, phorbol 12-myristate 12-acetate]
PBX0140D01 mRNA, stage 8
  Normalized by Landmarks (1.59): 3.66
  Normalized by all Data Points (1.28): 2.94
  Ratio of Medians (Cy5/Cy3) First Spot: 2.09
  Ratio of Medians (Cy5/Cy3) Mean: 2.30 ± 0.20
  Ratio of Medians (Cy5/Cy3) Second Spot: 2.50
PBX0140F01 mRNA, stage 8
  (CY3/CY5) by Landmarks (1.6): 2.39
  (CY3/CY5) by all Data Points (1.3): 3.83
  Normalization by Landmarks (1.6): 0.42
  Normalization by all Data Points (1.3): 0.26
  Ratio of Medians (Cy5/Cy3) First Spot: 0.24
  Ratio of Medians (Cy5/Cy3) Mean: 0.20 ± 0.04
  Ratio of Medians (Cy5/Cy3) Second Spot: 0.16
PBX0140H03 mRNA, stage 8
  (CY3/CY5) by Landmarks (1.6): 3.52
  (CY3/CY5) by all Data Points (1.3): 5.64
  Normalization by Landmarks (1.6): 0.28
  Normalization by all Data Points (1.3): 0.18
  Ratio of Medians (Cy5/Cy3) First Spot: 0.09
  Ratio of Medians (Cy5/Cy3) Mean: 0.14 ± 0.05
  Ratio of Medians (Cy5/Cy3) Second Spot: 0.19
PBX0141B03 mRNA, stage 8
  (CY3/CY5) by Landmarks (1.6): 1.74
  (CY3/CY5) by all Data Points (1.3): 2.78
  Normalization by Landmarks (1.6): 0.58
  Normalization by all Data Points (1.3): 0.36
  Ratio of Medians (Cy5/Cy3) First Spot: 0.38
  Ratio of Medians (Cy5/Cy3) Mean: 0.28 ± 0.10
  Ratio of Medians (Cy5/Cy3) Second Spot: 0.18
PBX0141F12 mRNA, stage 8
  (CY3/CY5) by Landmarks (1.6): 3.56
  (CY3/CY5) by all Data Points (1.3): 5.70
  Normalization by Landmarks (1.6): 0.28
  Normalization by all Data Points (1.3): 0.18
  Ratio of Medians (Cy5/Cy3) First Spot: 0.10
  Ratio of Medians (Cy5/Cy3) Mean: 0.14 ± 0.03
  Ratio of Medians (Cy5/Cy3) Second Spot: 0.17
PBX0141G06 mRNA, stage 8
  (CY3/CY5) by Landmarks (1.6): 1.67
  (CY3/CY5) by all Data Points (1.3): 2.67
  Normalization by Landmarks (1.6): 0.60
  Normalization by all Data Points (1.3): 0.38
  Ratio of Medians (Cy5/Cy3) First Spot: 0.17
  Ratio of Medians (Cy5/Cy3) Mean: 0.29 ± 0.12
  Ratio of Medians (Cy5/Cy3) Second Spot: 0.41
PBX0141G10 mRNA, stage 8
  Normalized by Landmarks (1.59): 4.98
  Normalized by all Data Points (1.28): 4.01
  Ratio of Medians (Cy5/Cy3) First Spot: 2.53
  Ratio of Medians (Cy5/Cy3) Mean: 3.13 ± 0.59
  Ratio of Medians (Cy5/Cy3) Second Spot: 3.72
PBX0142E01 mRNA, stage 8
  (CY3/CY5) by Landmarks (1.6): 2.64
  (CY3/CY5) by all Data Points (1.3): 4.23
  Normalization by Landmarks (1.6): 0.38
  Normalization by all Data Points (1.3): 0.24
  Ratio of Medians (Cy5/Cy3) First Spot: 0.14
  Ratio of Medians (Cy5/Cy3) Mean: 0.18 ± 0.04
  Ratio of Medians (Cy5/Cy3) Second Spot: 0.22
PBX0142E09 mRNA, stage 8
  Normalized by Landmarks (1.59): 4.32
  Normalized by all Data Points (1.28): 3.48
  Ratio of Medians (Cy5/Cy3) First Spot: 2.50
  Ratio of Medians (Cy5/Cy3) Mean: 2.72 ± 0.21
  Ratio of Medians (Cy5/Cy3) Second Spot: 2.93
PBX0142H06 mRNA, stage 8
  (CY3/CY5) by Landmarks (1.6): 2.52
  (CY3/CY5) by all Data Points (1.3): 4.04
  Normalization by Landmarks (1.6): 0.40
  Normalization by all Data Points (1.3): 0.25
  Ratio of Medians (Cy5/Cy3) First Spot: 0.15
  Ratio of Medians (Cy5/Cy3) Mean: 0.19 ± 0.04
  Ratio of Medians (Cy5/Cy3) Second Spot: 0.23
PBX0143C01 mRNA, stage 8
  (CY3/CY5) by Landmarks (1.6): 2.54
  (CY3/CY5) by all Data Points (1.3): 4.07
  Normalization by Landmarks (1.6): 0.39
  Normalization by all Data Points (1.3): 0.25
  Ratio of Medians (Cy5/Cy3) First Spot: 0.16
  Ratio of Medians (Cy5/Cy3) Mean: 0.19 ± 0.03
  Ratio of Medians (Cy5/Cy3) Second Spot: 0.22
PBX0143D10 mRNA, stage 8
  (CY3/CY5) by Landmarks (1.6): 1.57
  (CY3/CY5) by all Data Points (1.3): 2.51
  Normalization by Landmarks (1.6): 0.64
  Normalization by all Data Points (1.3): 0.40
  Ratio of Medians (Cy5/Cy3) First Spot: 0.22
  Ratio of Medians (Cy5/Cy3) Mean: 0.31 ± 0.11
  Ratio of Medians (Cy5/Cy3) Second Spot: 0.40
PBX0143E06 mRNA, stage 8
  Normalized by Landmarks (1.59): 3.85
  Normalized by all Data Points (1.28): 3.10
  Ratio of Medians (Cy5/Cy3) First Spot: 2.92
  Ratio of Medians (Cy5/Cy3) Mean: 2.42 ± 0.50
  Ratio of Medians (Cy5/Cy3) Second Spot: 1.91
PBX0144A09 mRNA, stage 8
  (CY3/CY5) by Landmarks (1.6): 6.45
  (CY3/CY5) by all Data Points (1.3): 10.33
  Normalization by Landmarks (1.6): 0.15
  Normalization by all Data Points (1.3): 0.10
  Ratio of Medians (Cy5/Cy3) First Spot: 0.06
  Ratio of Medians (Cy5/Cy3) Mean: 0.07 ± 0.02 ^a
  Ratio of Medians (Cy5/Cy3) Second Spot: 0.09
PBX0144C12 mRNA, stage 8
  Normalized by Landmarks (1.59): 5.55
  Normalized by all Data Points (1.28): 4.47
  Ratio of Medians (Cy5/Cy3) First Spot: 4.75
  Ratio of Medians (Cy5/Cy3) Mean: 3.49 ± 1.26
  Ratio of Medians (Cy5/Cy3) Second Spot: 2.23
PBX0144E04 mRNA, stage 8
  Normalized by Landmarks (1.59): 5.45
  Normalized by all Data Points (1.28): 4.38
  Ratio of Medians (Cy5/Cy3) First Spot: 3.67
  Ratio of Medians (Cy5/Cy3) Mean: 3.42 ± 0.25
  Ratio of Medians (Cy5/Cy3) Second Spot: 3.17
PBX0145A06 mRNA, stage 8
  Normalized by Landmarks (1.59): 4.55
  Normalized by all Data Points (1.28): 3.66
  Ratio of Medians (Cy5/Cy3) First Spot: 2.27
  Ratio of Medians (Cy5/Cy3) Mean: 2.86 ± 0.59
  Ratio of Medians (Cy5/Cy3) Second Spot: 3.44
PBX0145A10 mRNA, stage 8
  (CY3/CY5) by Landmarks (1.6): 1.93
  (CY3/CY5) by all Data Points (1.3): 3.10
  Normalization by Landmarks (1.6): 0.52
  Normalization by all Data Points (1.3): 0.32
  Ratio of Medians (Cy5/Cy3) First Spot: 0.28
  Ratio of Medians (Cy5/Cy3) Mean: 0.25 ± 0.03
  Ratio of Medians (Cy5/Cy3) Second Spot: 0.22
PBX0145E05 mRNA, stage 8
  (CY3/CY5) by Landmarks (1.6): 5.43
  (CY3/CY5) by all Data Points (1.3): 8.69
  Normalization by Landmarks (1.6): 0.18
  Normalization by all Data Points (1.3): 0.12
  Ratio of Medians (Cy5/Cy3) First Spot: 0.11
  Ratio of Medians (Cy5/Cy3) Mean: 0.09 ± 0.02
  Ratio of Medians (Cy5/Cy3) Second Spot: 0.07
PBX0145E09 mRNA, stage 8
  (CY3/CY5) by Landmarks (1.6): 2.76
  (CY3/CY5) by all Data Points (1.3): 4.42
  Normalization by Landmarks (1.6): 0.36
  Normalization by all Data Points (1.3): 0.23
  Ratio of Medians (Cy5/Cy3) First Spot: 0.16
  Ratio of Medians (Cy5/Cy3) Mean: 0.17 ± 0.02
  Ratio of Medians (Cy5/Cy3) Second Spot: 0.19
PBX0145E10 mRNA, stage 8
  (CY3/CY5) by Landmarks (1.6): 2.85
  (CY3/CY5) by all Data Points (1.3): 4.57
  Normalization by Landmarks (1.6): 0.35
  Normalization by all Data Points (1.3): 0.22
  Ratio of Medians (Cy5/Cy3) First Spot: 0.21
  Ratio of Medians (Cy5/Cy3) Mean: 0.17 ± 0.05
  Ratio of Medians (Cy5/Cy3) Second Spot: 0.12
PBX0145H10 mRNA, stage 8
  Normalized by Landmarks (1.59): 3.78
  Normalized by all Data Points (1.28): 3.05
  Ratio of Medians (Cy5/Cy3) First Spot: 2.90
  Ratio of Medians (Cy5/Cy3) Mean: 2.38 ± 0.52
  Ratio of Medians (Cy5/Cy3) Second Spot: 1.86
[1]
  expression of gene of EST PBX0144A09: highly down-regulated
  expression of genes of ESTs PBX0134G08, PBX0144C12, PBX0136C09, PBX0134H03, PBX0136F03, PBX0143E06 and PBX0137G06: highly up-regulated
Cleavage stage, treated vs untreated embryos, Table 1, Panel A
  up-regulation of the 25 highly up-regulated Xenopus genes: 3-8 fold
Gene PBX0135A08
  % increase of mRNA expression by Microarray analysis (NF by all data point): 270%^a % of control
Gene PBX013409
  % increase of mRNA expression by Microarray analysis (NF by all data point): 380% of control
[2]
  RAB-1A expression ratio: 2.10
  RAB-9 expression: down-regulated
  RAP-1B expression: down-regulated
Stage 8
  Phosphatase 2A regulatory subunit expression (PBX0140D01): 3 fold
